Reference: patent publication US10934255B2, “Nrf and HIF activators/HDAC inhibitors and therapeutic methods using the same” (THE BOARD OF TRUSTEES OF THE UNIVERSITY OF ILLINOIS, priority 2017, dated 2021)

What was measured:
[1] = molecular target: HDAC3/NcoR2 complex (Homo sapiens, UniProt O15379); assay: HDAC3 isoform selectivity assay; type: biochemical; conditions: Table 2 isoform selectivity; read-out: HDAC Inhibition (IC50 uM) isoform 3
Experimental: (§1) The HDAC1, 2, 4, 5, 6, 7, 8, 9, 10, and 11 assays used isolated recombinant human protein; HDAC3/NcoR2 complex was used for the HDAC3 assay. […] Acetyl-Lys(trifluoroacetyl)-AMC substrate was used for HDAC4, 5, 7, and 9 assays. […] IC50 values were extracted by curve-fitting the dose/response slopes. Assays were performed in duplicate and IC50 values are an average of data from both experiments.

[2] = molecular target: T1, HDAC8 (Homo sapiens, UniProt Q9BY41); assay: HDAC8 isoform selectivity assay; type: biochemical; conditions: Table 2 isoform selectivity; read-out: HDAC Inhibition (IC50 uM) isoform 8
T1 sequence (Q9BY41 1-377): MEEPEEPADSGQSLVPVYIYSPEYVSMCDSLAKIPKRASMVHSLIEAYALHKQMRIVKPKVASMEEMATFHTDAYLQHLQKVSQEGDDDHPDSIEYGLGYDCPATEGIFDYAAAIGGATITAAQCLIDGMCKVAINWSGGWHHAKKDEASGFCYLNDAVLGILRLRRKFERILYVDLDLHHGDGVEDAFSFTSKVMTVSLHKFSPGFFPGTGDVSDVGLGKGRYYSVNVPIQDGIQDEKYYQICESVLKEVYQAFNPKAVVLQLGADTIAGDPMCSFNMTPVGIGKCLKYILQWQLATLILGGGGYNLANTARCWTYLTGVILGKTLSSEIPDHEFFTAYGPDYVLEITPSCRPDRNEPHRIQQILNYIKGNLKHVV
Experimental: (§2) The HDAC1, 2, 4, 5, 6, 7, 8, 9, 10, and 11 assays used isolated recombinant human protein; HDAC3/NcoR2 complex was used for the HDAC3 assay. Substrate for HDAC1, 2, 3, 6, 10, and 11 assays is a fluorogenic peptide from p53 residues 379-382 (RHKKAc); substrate for HDAC8 is fluorogenic diacyl peptide based on residues 379-382 of p53 (RHKAcKAc). Acetyl-Lys(trifluoroacetyl)-AMC substrate was used for HDAC4, 5, 7, and 9 assays. Compounds were dissolved in DMSO and tested in 10-dose IC50 mode with 3-fold serial dilution starting at 30 μM. Control Compound Trichostatin A (TSA) was tested in a 10-dose IC50 with 3-fold serial dilution starting at 5 μM. IC50 values were extracted by curve-fitting the dose/response slopes. Assays were performed in duplicate and IC50 values are an average of data from both experiments.

[3] = molecular target: T2, HDAC10 (Homo sapiens, UniProt Q969S8); assay: HDAC10 isoform selectivity assay; type: biochemical; conditions: Table 2 isoform selectivity; read-out: HDAC Inhibition (IC50 uM) isoform 10
T2 sequence (Q969S8 1-669): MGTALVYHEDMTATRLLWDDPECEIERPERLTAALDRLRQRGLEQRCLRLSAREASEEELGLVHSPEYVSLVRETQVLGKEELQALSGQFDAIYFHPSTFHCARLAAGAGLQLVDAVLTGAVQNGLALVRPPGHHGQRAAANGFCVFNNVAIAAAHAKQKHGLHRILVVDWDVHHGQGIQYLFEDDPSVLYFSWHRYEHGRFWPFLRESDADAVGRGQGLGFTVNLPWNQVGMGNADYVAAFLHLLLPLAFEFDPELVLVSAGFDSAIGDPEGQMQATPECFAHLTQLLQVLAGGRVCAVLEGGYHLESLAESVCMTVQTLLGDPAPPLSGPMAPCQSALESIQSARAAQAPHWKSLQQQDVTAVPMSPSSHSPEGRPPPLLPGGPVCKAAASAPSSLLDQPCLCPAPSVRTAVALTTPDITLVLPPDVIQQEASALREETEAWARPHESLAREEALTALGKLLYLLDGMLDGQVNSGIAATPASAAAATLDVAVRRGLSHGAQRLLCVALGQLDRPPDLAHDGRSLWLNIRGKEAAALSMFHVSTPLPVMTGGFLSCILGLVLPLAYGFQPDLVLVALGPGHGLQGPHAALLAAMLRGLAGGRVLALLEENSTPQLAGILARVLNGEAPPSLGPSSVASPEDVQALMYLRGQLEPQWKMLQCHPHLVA
Experimental: as §2

[4] = molecular target: HDAC9 (Homo sapiens, UniProt Q9UKV0); assay: HDAC9 isoform selectivity assay; type: biochemical; conditions: Table 2 isoform selectivity; read-out: HDAC Inhibition (IC50 uM) isoform 9
Chain of HDAC9 (Q9UKV0 whole entry, canonical isoform): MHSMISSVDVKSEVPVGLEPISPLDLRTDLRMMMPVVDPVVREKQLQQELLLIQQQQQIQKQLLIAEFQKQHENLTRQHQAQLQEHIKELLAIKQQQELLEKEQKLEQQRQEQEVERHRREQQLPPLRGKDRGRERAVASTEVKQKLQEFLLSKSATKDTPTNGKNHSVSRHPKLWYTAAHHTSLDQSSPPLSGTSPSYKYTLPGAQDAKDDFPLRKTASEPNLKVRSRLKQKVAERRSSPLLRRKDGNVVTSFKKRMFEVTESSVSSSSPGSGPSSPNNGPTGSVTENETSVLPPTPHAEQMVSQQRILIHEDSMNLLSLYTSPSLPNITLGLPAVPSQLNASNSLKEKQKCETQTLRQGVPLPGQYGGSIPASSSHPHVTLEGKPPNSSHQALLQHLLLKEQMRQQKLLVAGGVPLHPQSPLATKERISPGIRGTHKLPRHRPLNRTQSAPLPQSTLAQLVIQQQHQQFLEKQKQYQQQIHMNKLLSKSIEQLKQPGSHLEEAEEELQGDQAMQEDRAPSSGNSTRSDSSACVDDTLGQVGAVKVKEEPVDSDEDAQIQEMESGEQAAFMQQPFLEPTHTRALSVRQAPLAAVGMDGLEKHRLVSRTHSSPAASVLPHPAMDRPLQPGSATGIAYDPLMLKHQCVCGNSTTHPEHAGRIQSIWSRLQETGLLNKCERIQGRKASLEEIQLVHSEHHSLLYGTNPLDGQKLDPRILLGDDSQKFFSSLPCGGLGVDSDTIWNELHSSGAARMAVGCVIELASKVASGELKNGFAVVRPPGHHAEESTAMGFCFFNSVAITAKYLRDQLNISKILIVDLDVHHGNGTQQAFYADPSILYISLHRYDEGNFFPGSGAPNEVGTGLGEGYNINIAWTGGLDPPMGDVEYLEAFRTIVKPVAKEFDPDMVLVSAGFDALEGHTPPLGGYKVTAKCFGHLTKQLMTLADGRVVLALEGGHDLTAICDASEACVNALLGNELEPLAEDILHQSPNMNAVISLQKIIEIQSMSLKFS
Experimental: as §2

[5] = molecular target: HDAC4 (Homo sapiens, UniProt P56524); assay: HDAC4 isoform selectivity assay; type: biochemical; conditions: Table 2 isoform selectivity; read-out: HDAC Inhibition (IC50 uM) isoform 4
Chain of HDAC4 (P56524 whole entry, canonical isoform): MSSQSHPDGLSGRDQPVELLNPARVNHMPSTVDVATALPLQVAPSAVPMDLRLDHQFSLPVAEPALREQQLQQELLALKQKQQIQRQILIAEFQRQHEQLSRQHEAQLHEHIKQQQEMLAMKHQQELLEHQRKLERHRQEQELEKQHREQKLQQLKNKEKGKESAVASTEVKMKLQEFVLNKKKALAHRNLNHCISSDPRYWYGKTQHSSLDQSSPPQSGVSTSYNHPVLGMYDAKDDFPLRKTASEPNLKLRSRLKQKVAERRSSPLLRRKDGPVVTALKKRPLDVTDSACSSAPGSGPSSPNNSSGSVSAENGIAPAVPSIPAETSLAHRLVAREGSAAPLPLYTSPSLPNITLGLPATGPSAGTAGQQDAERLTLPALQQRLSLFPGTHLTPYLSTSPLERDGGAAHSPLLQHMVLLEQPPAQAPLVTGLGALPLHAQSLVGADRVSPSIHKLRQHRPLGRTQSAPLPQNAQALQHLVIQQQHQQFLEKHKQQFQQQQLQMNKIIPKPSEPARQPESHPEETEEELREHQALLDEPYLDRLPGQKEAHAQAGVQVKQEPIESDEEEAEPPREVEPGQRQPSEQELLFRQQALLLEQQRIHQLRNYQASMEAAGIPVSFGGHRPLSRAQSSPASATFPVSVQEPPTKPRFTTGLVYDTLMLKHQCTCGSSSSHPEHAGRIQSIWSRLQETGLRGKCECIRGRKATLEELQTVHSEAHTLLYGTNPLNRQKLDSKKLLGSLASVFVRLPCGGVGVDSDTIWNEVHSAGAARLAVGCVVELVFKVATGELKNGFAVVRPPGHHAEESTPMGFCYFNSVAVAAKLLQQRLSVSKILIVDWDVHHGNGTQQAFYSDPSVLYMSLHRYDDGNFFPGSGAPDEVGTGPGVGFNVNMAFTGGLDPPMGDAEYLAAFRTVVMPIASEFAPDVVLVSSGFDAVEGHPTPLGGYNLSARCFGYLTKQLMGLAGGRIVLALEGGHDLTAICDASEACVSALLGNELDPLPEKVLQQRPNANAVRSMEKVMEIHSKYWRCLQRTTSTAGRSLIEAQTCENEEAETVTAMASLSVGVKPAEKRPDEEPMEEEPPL
Experimental: as §2

[6] = molecular target: HDAC2 (Homo sapiens, UniProt Q92769); assay: HDAC2 isoform selectivity assay; type: biochemical; conditions: Table 2 isoform selectivity; read-out: HDAC Inhibition (IC50 uM) isoform 2
Chain of HDAC2 (Q92769 whole entry, canonical isoform): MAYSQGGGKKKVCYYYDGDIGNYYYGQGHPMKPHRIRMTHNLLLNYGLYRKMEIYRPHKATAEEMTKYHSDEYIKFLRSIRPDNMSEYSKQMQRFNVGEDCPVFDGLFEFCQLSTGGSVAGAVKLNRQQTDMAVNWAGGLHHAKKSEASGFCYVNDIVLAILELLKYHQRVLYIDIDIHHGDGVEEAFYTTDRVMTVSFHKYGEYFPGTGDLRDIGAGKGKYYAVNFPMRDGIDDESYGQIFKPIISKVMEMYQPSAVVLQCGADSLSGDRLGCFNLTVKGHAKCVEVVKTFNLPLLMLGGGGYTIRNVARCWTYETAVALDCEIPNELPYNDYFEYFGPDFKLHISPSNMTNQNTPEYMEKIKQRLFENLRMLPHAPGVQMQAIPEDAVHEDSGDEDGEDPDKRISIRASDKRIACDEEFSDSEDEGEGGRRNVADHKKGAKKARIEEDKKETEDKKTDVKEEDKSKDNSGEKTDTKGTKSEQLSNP
Experimental: as §2

[7] = molecular target: T3, HDAC11 (Homo sapiens, UniProt Q96DB2); assay: HDAC11 isoform selectivity assay; type: biochemical; conditions: Table 2 isoform selectivity; read-out: HDAC Inhibition (IC50 uM) isoform 11
T3 sequence (Q96DB2 1-347): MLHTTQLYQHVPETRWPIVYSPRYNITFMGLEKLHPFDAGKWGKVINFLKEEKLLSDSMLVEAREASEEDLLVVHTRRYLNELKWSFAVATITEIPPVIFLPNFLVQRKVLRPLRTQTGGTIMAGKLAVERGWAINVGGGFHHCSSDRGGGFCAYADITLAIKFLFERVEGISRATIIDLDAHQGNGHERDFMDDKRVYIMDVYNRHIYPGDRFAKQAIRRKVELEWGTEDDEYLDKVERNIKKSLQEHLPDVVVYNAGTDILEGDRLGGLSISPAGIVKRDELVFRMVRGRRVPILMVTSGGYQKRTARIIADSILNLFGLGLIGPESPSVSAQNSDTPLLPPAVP
Experimental: as §1

[8] = molecular target: HDAC5 (Homo sapiens, UniProt Q9UQL6); assay: HDAC5 isoform selectivity assay; type: biochemical; conditions: Table 2 isoform selectivity; read-out: HDAC Inhibition (IC50 uM) isoform 5
Chain of HDAC5 (Q9UQL6 whole entry, canonical isoform): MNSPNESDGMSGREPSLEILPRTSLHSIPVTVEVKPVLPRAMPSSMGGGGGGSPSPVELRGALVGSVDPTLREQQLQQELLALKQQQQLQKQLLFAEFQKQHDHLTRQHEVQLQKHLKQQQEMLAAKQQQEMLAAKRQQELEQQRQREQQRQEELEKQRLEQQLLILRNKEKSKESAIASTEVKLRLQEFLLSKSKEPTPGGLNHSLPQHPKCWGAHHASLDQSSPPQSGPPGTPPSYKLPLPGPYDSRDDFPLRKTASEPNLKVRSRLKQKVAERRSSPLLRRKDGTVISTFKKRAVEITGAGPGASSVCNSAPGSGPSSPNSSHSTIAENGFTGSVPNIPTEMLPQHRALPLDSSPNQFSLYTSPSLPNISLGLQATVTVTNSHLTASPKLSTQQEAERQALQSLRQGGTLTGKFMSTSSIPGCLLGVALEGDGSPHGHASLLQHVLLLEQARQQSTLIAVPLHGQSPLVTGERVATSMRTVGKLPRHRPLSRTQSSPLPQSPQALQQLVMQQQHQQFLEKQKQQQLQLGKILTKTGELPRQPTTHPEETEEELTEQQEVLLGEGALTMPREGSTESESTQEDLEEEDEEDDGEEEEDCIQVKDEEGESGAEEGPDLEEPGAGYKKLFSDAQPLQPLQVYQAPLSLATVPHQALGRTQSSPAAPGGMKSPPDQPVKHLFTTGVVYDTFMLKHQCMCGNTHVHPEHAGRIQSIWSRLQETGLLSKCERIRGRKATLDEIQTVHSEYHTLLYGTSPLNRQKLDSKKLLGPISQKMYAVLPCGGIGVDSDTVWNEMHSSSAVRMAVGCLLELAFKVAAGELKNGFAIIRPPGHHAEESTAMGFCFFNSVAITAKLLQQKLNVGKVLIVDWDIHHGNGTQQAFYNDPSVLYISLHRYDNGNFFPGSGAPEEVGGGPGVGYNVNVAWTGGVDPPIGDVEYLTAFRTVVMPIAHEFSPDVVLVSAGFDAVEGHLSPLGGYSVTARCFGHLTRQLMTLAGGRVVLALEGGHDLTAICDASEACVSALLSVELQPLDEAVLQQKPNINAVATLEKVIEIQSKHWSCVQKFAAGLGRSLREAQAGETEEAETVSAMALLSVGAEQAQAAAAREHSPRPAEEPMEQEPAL
Experimental: as §2

[9] = In vitro metabolic stability in human liver microsomes; type: in vitro ADME; conditions: human liver microsomes after 60 min at 10 uM

Chain of HDAC3/NcoR2 complex (O15379 whole entry, canonical isoform): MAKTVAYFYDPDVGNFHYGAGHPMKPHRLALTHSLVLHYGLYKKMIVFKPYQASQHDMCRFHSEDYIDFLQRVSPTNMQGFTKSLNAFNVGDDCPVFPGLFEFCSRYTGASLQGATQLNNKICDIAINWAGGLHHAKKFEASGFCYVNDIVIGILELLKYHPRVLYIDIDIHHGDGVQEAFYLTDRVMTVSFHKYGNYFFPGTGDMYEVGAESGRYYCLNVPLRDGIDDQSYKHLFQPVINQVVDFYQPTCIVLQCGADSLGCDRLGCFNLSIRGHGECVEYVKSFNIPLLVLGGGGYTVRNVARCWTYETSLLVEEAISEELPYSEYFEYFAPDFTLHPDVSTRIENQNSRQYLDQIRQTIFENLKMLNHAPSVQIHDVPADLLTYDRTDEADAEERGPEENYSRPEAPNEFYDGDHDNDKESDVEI
Chain of HDAC3/NcoR2 complex (Q9Y618 395-489 partner limits assumed): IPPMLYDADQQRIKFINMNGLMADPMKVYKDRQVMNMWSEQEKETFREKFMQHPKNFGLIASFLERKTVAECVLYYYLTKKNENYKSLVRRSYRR

| Compound | IC50 [1] | IC50 [2] | IC50 [3] | IC50 [4] | IC50 [5] | IC50 [6] | IC50 [7] | IC50 [8] | Microsomes stability (% remaining vsT0) [9] |
| --- | --- | --- | --- | --- | --- | --- | --- | --- | --- |
| Cn1c(NCc2ccc(C(=O)NO)cc2)nc2ccccc21 [II-ING-13, N-Hydroxy-4-(((1-methyl-1H-benzo[d]imidazol-2-yl)amino)methyl)benzamide] | 3.51 µM | 0.17 µM | 5.95 µM | 1.1 µM | 2.42 µM | 5.2 µM | 2.11 µM | 1.96 µM | – |
| O=C(NO)c1ccc(CN2CCc3ccc(Cl)cc32)cc1 [II-ING-6, 4-((6-Chloroindolin-1-yl)methyl)-N-hydroxybenzamide] | 4.34 µM | 0.53 µM | 6.39 µM | 2.06 µM | 3.48 µM | 6.24 µM | 4.52 µM | 2.7 µM | 88.6 % remaining vsT0 |
| O=C(NO)c1ccc(CN2CCc3ccc(F)cc32)cc1 [II-ING-41, 4-((6-Fluoroindolin-1-yl)methyl)-N-hydroxybenzamide] | 5.43 µM | 0.19 µM | 6.03 µM | 1 µM | 2.41 µM | 7.15 µM | 5.37 µM | 1.39 µM | 88.1 % remaining vsT0 |
| O=C(NO)c1ccc(CN2CCc3cc(Cl)ccc32)cc1 [II-ING-39, 4-((5-Chloroindolin-1-yl)methyl)-N-hydroxybenzamide] | – | – | – | – | – | – | – | – | 81.7 % remaining vsT0 |
